Calls of active or inactive are those of the source.
Assays:
[1] = biological target: T1, Calpain-2 catalytic subunit (Sus scrofa, UniProt P43367); experiment: pig calpain II inhibitor potency, dose response, biochemical, fluorogenic peptide substrate (AID 1420); assay type: functional
T1 sequence (P43367 whole entry): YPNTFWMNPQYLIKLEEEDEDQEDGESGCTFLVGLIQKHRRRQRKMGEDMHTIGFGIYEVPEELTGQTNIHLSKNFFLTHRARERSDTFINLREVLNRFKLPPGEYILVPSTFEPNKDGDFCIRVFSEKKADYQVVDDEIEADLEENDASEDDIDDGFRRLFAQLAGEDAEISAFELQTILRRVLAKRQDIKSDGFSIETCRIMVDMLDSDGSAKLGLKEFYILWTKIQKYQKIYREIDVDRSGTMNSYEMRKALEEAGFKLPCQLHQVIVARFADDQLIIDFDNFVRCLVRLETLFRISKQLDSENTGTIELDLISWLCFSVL

Aminopeptidase N = biological target: T2, Aminopeptidase N (Plasmodium falciparum FcB1/Columbia, UniProt O96935); experiment: P. falciparum M1AAP inhibitors, biochemical, fluorogenic H-Leu-NHMec substrate, 1536-well (AID 1445); parameters: species or system Plasmodium falciparum 3D7, 3D7
T2 sequence (O96935 whole entry): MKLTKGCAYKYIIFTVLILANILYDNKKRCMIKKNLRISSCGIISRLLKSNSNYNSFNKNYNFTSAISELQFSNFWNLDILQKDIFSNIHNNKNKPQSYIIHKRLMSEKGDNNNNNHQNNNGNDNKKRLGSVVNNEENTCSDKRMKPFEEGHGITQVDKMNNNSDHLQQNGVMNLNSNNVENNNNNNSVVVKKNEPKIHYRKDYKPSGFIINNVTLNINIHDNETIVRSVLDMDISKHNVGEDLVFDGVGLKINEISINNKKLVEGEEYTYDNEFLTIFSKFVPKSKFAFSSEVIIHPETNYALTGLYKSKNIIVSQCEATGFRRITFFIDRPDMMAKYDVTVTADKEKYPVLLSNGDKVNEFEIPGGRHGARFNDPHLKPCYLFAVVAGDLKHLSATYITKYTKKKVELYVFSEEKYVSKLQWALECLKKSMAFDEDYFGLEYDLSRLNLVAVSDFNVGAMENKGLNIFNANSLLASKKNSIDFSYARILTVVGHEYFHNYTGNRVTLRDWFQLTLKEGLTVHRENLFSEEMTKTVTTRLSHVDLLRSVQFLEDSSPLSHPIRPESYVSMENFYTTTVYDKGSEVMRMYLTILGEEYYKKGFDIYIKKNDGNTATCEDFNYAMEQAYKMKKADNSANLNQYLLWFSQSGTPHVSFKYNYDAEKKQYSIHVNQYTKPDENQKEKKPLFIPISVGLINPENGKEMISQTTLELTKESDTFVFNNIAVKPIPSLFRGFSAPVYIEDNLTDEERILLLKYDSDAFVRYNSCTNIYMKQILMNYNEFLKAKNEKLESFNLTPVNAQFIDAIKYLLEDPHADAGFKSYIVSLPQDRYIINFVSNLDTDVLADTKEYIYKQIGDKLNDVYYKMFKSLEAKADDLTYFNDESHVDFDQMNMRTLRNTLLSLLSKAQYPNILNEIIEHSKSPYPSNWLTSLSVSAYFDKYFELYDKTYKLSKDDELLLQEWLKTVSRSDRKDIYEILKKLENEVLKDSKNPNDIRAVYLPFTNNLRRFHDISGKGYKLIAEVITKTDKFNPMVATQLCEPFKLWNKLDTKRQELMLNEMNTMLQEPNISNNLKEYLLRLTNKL

[2] = inhibitors of Vif binding to APOBEC3G peptide, primary screen, biochemical, TR-FRET, GST-Vif 1-94, biotin-A3G peptide, dose response retest (AID 1117319); assay type: functional;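 also: TR-FRET signal of purified GST-Vif binding a biotinylated A3G peptide; inhibitors lower the FRET signal by blocking Vif and A3G binding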
[3] = inhibitors of intracellular T. cruzi replication, confirmation, NIH3T3 host cells, beta-gal luminescence (AID 2044); assay type: functional, cell-based;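 also: intracellular parasites grown in NIH/3T3 mouse fibroblasts as host cells; luminescent beta-galactosidase reporter signal from transgenic T. cruzi replicating inside host cells; inhibitors lower the luminescence signal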
[4] = cytotoxicity toward NIH3T3 fibroblasts, dose response, counter-screen, cell-based, ATP luminescence, mouse fibroblasts (AID 2010); assay type: functional;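 also: cells exposed to compound for about 90 hours before reading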
[5] = biological target: T3, Histone-lysine N-methyltransferase NSD2 (Homo sapiens, UniProt O96028); assay type: biochemical
T3 sequence (O96028 whole entry): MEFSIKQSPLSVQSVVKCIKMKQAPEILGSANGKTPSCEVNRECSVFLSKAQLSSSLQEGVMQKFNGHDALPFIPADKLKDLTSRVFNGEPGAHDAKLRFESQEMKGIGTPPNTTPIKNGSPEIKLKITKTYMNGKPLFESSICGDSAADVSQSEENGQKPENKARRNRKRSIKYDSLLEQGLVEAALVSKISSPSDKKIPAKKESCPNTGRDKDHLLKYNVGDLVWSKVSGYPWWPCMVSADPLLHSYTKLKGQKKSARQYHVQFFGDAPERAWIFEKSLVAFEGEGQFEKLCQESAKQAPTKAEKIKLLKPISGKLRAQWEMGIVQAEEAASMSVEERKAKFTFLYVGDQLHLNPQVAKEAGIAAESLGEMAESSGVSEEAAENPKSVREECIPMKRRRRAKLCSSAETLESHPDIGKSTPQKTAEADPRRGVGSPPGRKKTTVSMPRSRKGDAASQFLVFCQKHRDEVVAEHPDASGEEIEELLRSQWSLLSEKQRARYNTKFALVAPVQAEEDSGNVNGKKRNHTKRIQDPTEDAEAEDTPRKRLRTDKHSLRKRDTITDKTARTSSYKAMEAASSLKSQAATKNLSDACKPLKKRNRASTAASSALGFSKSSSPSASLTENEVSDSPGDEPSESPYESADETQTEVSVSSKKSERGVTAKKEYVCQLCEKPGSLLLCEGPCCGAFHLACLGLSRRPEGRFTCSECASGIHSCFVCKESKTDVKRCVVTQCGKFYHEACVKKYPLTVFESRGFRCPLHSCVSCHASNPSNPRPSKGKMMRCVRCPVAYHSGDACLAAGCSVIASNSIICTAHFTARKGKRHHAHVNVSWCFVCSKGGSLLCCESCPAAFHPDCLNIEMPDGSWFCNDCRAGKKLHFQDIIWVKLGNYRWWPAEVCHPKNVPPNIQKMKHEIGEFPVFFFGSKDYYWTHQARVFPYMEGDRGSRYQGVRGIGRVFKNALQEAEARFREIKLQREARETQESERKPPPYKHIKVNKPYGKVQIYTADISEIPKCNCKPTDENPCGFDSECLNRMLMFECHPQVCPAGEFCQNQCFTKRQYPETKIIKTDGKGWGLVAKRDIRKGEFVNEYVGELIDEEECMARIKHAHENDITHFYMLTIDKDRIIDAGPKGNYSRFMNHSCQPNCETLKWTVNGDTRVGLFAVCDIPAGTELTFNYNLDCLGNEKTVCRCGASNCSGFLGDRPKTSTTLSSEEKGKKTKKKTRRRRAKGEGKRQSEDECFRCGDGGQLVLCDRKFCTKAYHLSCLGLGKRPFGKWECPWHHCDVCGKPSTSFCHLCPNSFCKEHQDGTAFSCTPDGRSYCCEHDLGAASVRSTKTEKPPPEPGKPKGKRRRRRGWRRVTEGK

Cytochrome P450 2C9 = Cytochrome P450 2C9 (Homo sapiens, UniProt P11712)
Cytochrome P450 2C9, sequence (P11712 whole entry): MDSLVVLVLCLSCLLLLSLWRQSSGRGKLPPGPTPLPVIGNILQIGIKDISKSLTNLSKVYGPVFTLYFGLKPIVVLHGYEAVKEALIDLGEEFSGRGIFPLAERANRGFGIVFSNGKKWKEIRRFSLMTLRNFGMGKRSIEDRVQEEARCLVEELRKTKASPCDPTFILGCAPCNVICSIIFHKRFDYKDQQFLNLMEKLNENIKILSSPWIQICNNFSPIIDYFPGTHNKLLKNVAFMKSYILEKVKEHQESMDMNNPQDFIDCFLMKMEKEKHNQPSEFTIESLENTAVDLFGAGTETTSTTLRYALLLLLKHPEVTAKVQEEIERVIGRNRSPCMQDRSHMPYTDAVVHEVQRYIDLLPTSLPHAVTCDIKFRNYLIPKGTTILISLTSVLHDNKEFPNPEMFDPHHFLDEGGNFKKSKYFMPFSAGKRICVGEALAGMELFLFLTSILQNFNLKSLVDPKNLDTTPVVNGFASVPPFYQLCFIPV

CCOC(=O)CSc1nc(C(C)C)nc2sc(C)c(C)c12
IC50 [1]: 2.34 µM (not active)

Cc1ccc(SCC(=O)c2c(C)nc3cc(C)ccn23)cc1
IC50 [1]: 6.79 µM (not active)

O=C(CN1CCC(NC(=O)c2cccc(F)c2)CC1)NCc1ccccc1F
IC50 (Aminopeptidase N): 23.2 µM (active) | IC50 [2]: > 100 µM (active)

O=S(=O)(Nc1ccc2c(c1)nc1n2CCN(Cc2ccccc2)C1)c1ccc(Cl)cc1
IC50 [2]: > 100 µM (active)

COc1cccc(CN2CCNC(=O)C2CC(=O)NCCn2nc(C)cc2C)c1OC (stereo unspecified)
IC50 [2]: > 100 µM (active)

CNCCCOc1cccc(Oc2ccccc2)c1
EC50 [3]: 1.29 µM (active) | EC50 [4]: > 30 µM (not active) | AC50 [5]: > 20 µM (inactive)

Cc1ccc[n+](CC(=O)c2cc3ccccc3oc2=O)c1
IC50 [2]: > 100 µM (active) | AC50 (Cytochrome P450 2C9): 1.78 µM (inconclusive)
